# Source: patent US11254696B2, “Dianilinopyrimidine compound for inhibiting kinase activity” (Shenzhen Targetrx, Inc., priority 2017, dated 2022)
# Columns and labels:
# ALK[L1196M] (Ba/F3) [1] = target: T1, ALK[L1196M] (Ba/F3) (Homo sapiens, UniProt Q9UM73, L1196M, cells depend on it); assay: Cytotoxicity test (CellTiter-Glo), BaF3 EML4-ALK L1196M; format: cell-based; conditions: 72 hours, CellTiter-Glo; read-out: IC50(nM) ALK[L1196M] (Ba/F3)
# T1 construct: IC50(nM) ALK[L1196M]; (Ba/F3); other: 72 hours, CellTiter-Glo; BaF3 [EMF4-AFK F1196M]; fused on or other part: Q9HC35 (Echinoderm microtubule-associated protein-like 4)
# T1 sequence (Q9UM73 whole entry L1196M, the tested form may be a part): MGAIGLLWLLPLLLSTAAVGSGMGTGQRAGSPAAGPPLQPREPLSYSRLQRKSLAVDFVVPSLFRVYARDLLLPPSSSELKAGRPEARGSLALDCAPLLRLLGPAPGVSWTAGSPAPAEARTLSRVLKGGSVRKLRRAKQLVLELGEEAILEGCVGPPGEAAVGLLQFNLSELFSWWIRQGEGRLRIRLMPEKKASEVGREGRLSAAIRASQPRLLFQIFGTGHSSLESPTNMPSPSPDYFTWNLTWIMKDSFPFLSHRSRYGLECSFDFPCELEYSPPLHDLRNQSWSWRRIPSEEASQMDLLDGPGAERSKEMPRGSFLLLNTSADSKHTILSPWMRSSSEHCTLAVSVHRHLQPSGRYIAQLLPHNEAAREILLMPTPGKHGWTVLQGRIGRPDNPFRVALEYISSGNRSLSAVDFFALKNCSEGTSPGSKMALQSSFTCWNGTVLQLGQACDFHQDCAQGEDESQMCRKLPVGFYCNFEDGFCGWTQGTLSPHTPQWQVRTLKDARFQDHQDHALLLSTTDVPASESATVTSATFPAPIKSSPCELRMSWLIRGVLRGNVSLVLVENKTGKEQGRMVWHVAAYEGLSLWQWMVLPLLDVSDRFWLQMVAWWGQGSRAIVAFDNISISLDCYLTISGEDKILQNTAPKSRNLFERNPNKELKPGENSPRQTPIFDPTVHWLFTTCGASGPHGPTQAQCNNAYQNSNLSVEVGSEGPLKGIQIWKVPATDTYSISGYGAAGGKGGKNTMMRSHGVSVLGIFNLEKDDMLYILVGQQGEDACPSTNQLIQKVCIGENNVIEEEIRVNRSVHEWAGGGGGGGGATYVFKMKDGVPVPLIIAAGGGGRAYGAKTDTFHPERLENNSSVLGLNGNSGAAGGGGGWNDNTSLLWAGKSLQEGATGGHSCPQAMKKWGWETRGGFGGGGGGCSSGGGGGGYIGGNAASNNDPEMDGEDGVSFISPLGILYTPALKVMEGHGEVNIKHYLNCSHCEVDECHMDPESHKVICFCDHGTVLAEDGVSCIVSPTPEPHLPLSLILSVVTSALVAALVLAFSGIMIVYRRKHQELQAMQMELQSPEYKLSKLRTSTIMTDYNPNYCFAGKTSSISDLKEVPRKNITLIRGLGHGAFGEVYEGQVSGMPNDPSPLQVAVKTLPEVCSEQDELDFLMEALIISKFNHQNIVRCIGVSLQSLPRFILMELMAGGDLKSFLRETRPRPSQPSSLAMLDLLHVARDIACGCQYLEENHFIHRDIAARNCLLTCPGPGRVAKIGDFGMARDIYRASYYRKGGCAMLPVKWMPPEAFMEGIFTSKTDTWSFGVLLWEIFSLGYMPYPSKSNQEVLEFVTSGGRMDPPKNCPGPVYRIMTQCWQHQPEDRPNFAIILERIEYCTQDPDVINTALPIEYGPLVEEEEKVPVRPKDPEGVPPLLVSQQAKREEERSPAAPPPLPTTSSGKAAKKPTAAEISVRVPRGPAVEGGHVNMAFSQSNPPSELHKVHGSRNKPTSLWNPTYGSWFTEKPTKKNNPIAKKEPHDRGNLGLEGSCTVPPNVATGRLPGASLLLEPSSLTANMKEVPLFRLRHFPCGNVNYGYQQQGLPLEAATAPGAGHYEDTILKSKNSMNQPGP
# Method: (§1) The in vitro anti-proliferative activity of the compounds of the present disclosure against three types of cells that are cultured in vitro was tested by CellTiter-Glo method.
# (§2) Cell lines: BaF3 parental; BaF3 [EML4-ALK] (From WuXi PharmaTech) and BaF3 [EMF4-AFK F1196M] (From WuXi PharmaTech); wherein, BaF3 parental was cultured in RPMI1640 medium containing 10 ng/ml IL-3, 10% fetal bovine serum, 100 U/ml penicillin, and 100 μg/ml streptomycin, BaF3 [EMF4-AFK] and BaF3 [EMF4-AFK F1196M] were cultured in RPMI1640 medium containing 10% fetal bovine serum, 100 U/ml penicillin, and 100 μg/ml streptomycin.
# (§3) Reagents and materials: RPMI-1640 (GIBCO, Cat. No. A10491-01); fetal bovine serum (GIBCO, Cat. No. 10099141); 0.25% trypsin-EDTA (GIBCO, Cat. No. 25200); penicillin-streptomycin, liquid (GIBCO, Cat. No. 15140-122); DMSO (Sigma, Cat. No. D2650); CellTiter-Glo Test Kit (Promega, Cat. No. G7572), and 96-well plate (Corning, Cat. No. 3365).
# (§4) 1. The test compounds were dissolved in DMSO to make stock solutions and subjected to a series gradient dilution to give solutions with 10-fold working concentration.
# (§5) 2. The cells in the logarithmic growth phase were diluted with the culture solution to adjust to the specific cell concentration, 90 μi of cell suspension was added to the 96-well plate to make the cell density reach the specified concentration. The plate was incubated in a incubator at 37° C., containing 5% carbon dioxide gas overnight.
# (§6) 3. 10 μl drug solutions were added to each well of the 96-well plate inoculated with cells. 10 concentrations of the compounds were tested starting from the highest concentration of 20 μM with a 3-fold series gradient dilution in duplicate.
# (§7) 4. After continuously cultured for 72 hours, the cells were detected by CellTiter-Glo for the cell viability. The dose-effect curve was made using GraphPad Prism software and IC50 was calculated.
# ALK[L1196M] (Ba/F3) [2] = assay: as above; format: cell-based; conditions: Ba/F3 cells
# Method: as §1, §2, §3, §4, §5, §6, §7
# [3] = Metabolic stability in human liver microsomes; format: in vitro ADME; conditions: pH 7.4, 1 μM compound, 0.5 mg/mL protein; for microsomal CLint at 1 μM: read-out: CLint (uL/min/mg), Human liver microsome experiment; for half-life at 1 μM: read-out: t1/2 (min), Human liver microsome experiment
# Method: (§8) Experiments in microsomes: Human liver microsomes: 0.5 mg/mL, Xenotech; Rat liver microsomes: 0.5 mg/mL, Xenotech; Coenzyme (NADPH/NADH): 1 mM, Sigma Life Science; Magnesium chloride: 5 mM, 100 mM phosphate buffer (pH 7.4).
# (§9) Preparation of stock solution: Powder of the example compounds was accurately weighed and dissolved in DMSO to 5 mM. Preparation of phosphate buffer (100 mM, pH7.4): A pre-formulated 0.5M potassium dihydrogen phosphate (150 mL) was mixed with 0.5M dibasic potassium phosphate (700 mL). The pH of the mixture was adjusted to 7.4 with 0.5M dibasic potassium phosphate solution. The mixture was diluted 5-fold with ultrapure water before use, and magnesium chloride was added to obtain a phosphate buffer (100 mM) containing 100 mM potassium phosphate, 3.3 mM magnesium chloride, pH7.4. A NADPH regeneration system solution (containing 6.5 mM NADP, 16.5 mM G-6-P, 3 U/mL G-6-PD, 3.3 mM magnesium chloride) was prepared and placed on wet ice prior to use. Preparation of stop solution: acetonitrile solution containing 50 ng/mL propranolol hydrochloride and 200 ng/mL tolbutamide (internal standard). 25057.5 μL of phosphate buffer (pH 7.4) was taken into a 50 mL centrifuge tube, to which 812.5 μL human liver microsomes were added, and mixed to obtain a liver microsome dilution solution with a protein concentration of 0.625 mg/mL. 25057.5 μL of phosphate buffer (pH 7.4) was taken into a 50 mL centrifuge tube, to which 812.5 μL SD rat liver microsomes were added, and mixed to obtain a liver microsome dilution solution with a protein concentration of 0.625 mg/mL.
# (§10) Incubation of the samples: The stock solution of the respective compound was respectively diluted to 0.25 mM with an aqueous solution containing 70% acetonitrile, and used as a working solution, ready for use. 398 μL of the dilution solution of human liver microsomes or rat liver microsome were added to a 96-well incubation plate (N=2), respectively, and 2 μL of 0.25 mM working solution was added and mixed.
# (§11) Metabolic stability assay: 300 μL of pre-chilled stop solution was added to each well of a 96-well deep well plate and placed on ice as a stop plate. The 96 well incubation plate and NADPH regeneration system were placed in a 37° C. water bath box, shaken at 100 rpm and pre-incubated for 5 min. 80 μL of incubation solution was taken out from each well of the incubation plate and added to the stop plate, mixed, and replenished with 20 μL of NADPH regeneration system solution as a 0-min sample. 80 μL of NADPH regeneration system solution was added to each well of the incubation plate to start the reaction and start counting. […] Separately, 100 μL of the reaction solution was taken at 10, 30, and 90 min reaction, respectively, added to a stop plate, and vortexed for 3 minutes to terminate the reaction. The stop plate was centrifuged at 5000×g at 4° C. for 4 min. 100 μL of the supernatant was added to a 96-well plate to which 100 μL of distilled water was previously added, mixed, and analyzed by LC-MS/MS.
# (§12) Data analysis: The peak areas of the corresponding compound and internal standard were detected by LC-MS/MS system, and the ratio of the peak area of the compound to the internal standard was calculated.
# [4] = Metabolic stability in rat liver microsomes; format: in vitro ADME; conditions: SD, pH 7.4, 1 μM compound, 0.5 mg/mL protein; for microsomal CLint at 1 μM: read-out: CLint (uL/min/mg), Rat liver microsome experiment; for half-life at 1 μM: read-out: t1/2 (min), Rat liver microsome experiment
# Method: as §8, §9, §10, §11, §12
# ALK [WT] = ALK [WT] (Homo sapiens, UniProt Q9UM73); assay: Kinase inhibition assay, ALK [WT]; format: biochemical
# ALK [WT], sequence (Q9UM73 19-1620): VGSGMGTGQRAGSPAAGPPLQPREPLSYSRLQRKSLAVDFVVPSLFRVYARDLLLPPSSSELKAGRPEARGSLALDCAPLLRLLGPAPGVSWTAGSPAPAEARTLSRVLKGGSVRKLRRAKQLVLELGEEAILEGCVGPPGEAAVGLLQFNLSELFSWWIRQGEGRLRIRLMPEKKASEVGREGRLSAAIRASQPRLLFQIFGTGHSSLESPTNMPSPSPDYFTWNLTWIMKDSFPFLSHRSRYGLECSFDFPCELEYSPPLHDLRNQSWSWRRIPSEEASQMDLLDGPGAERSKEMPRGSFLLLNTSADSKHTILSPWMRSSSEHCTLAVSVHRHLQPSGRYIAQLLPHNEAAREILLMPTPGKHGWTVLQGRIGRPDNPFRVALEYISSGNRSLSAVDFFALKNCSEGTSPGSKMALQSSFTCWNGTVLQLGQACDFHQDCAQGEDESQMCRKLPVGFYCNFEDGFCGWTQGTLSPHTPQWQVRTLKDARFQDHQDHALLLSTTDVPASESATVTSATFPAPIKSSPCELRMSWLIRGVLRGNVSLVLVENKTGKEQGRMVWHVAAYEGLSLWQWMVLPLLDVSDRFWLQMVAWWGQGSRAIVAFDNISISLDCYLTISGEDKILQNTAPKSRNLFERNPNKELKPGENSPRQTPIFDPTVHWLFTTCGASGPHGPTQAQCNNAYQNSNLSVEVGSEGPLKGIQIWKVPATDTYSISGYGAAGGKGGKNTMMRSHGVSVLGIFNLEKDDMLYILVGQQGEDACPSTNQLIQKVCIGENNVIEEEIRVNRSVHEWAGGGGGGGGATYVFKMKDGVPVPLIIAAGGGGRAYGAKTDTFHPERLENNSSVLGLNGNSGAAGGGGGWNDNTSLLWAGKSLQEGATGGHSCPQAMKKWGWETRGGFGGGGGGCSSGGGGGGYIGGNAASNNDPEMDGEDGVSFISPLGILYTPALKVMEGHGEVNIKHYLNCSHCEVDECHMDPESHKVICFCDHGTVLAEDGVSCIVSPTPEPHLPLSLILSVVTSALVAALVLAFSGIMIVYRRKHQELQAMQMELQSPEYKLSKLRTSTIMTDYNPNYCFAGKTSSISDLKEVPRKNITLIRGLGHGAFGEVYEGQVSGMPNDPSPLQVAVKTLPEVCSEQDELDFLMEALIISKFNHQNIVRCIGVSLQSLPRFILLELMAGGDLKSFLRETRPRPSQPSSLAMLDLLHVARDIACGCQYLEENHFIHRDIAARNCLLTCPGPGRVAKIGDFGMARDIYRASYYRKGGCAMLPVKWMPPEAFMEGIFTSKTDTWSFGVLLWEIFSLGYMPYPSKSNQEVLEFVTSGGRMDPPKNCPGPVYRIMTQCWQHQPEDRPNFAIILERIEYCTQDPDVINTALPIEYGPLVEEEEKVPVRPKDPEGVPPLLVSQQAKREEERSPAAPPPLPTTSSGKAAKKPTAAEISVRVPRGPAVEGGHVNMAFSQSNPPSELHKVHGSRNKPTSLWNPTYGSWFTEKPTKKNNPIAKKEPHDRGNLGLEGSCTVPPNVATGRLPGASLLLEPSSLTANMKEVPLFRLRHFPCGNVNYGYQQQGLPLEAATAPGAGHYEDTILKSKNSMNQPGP
# Method: (§13) Compound preparation: The test compounds were dissolved in DMSO to make 20 mM stock solutions. The compounds were diluted in DMSO to 0.1 mM (a dilution with 100 times the final concentration) before use, and a 3-fold series gradient dilution with 11 concentrations was made. Dilutions with 4 times of the final concentration were prepared by diluting with buffer when dosing.
# (§14) Kinase assay: after preparing the buffer solution, the enzyme was mixed with pre-diluted compounds with different concentrations, and placed at room temperature for 30 minutes in duplicate. The corresponding substrate and ATP were added thereto and reacted at room temperature for 60 minutes (both a negative and a positive control were set). After the reaction, antibody was added for detection, and after incubation at room temperature for 60 minutes, Evnvision detection was carried out, and data was collected. Data was analyzed and fit according to XLfit5 software. IC50 was calculated by the following formula: (IC50=[(ABS test−ABS begin)/(ABS control−ABS begin)]×100).
# BaF3 parental = assay: Cytotoxicity test (CellTiter-Glo), BaF3 parental; format: cell-based; conditions: Mus musculus, 72 hours, read-out: IC50(nM) parental (Ba/F3)
# Method: as §1, §2, §3, §4, §5, §6, §7
# BaF3 [EML4-ALK] [5] = target: T2, BaF3 [EML4-ALK] (Homo sapiens, UniProt Q9UM73); assay: Cytotoxicity test (CellTiter-Glo), BaF3 [EML4-ALK]; format: cell-based; conditions: 72 hours, CellTiter-Glo; read-out: IC50(nM) ALK (Ba/F3)
# T2 construct: IC50(nM) ALK (Ba/F3); other: 72 hours, CellTiter-Glo; BaF3 [EML4-ALK]; fused on or other part: Q9HC35 (Echinoderm microtubule-associated protein-like 4)
# T2 sequence (Q9UM73 whole entry, change not shown, the tested form may be a part): as the sequence (Q9UM73 whole entry L1196M, the tested form may be a part) above, with M1196L counted along it
# Method: as §1, §2, §3, §4, §5, §6, §7
# BaF3 [EML4-ALK] [6] = assay: Cytotoxicity test (CellTiter-Glo), BaF3 [EML4-ALK]; format: cell-based; conditions: Ba/F3 cells
# Method: as §1, §2, §3, §4, §5, §6, §7
# ALK [L1196M] = ALK [L1196M] (Homo sapiens, UniProt Q9UM73, L1196M); assay: Kinase inhibition assay, ALK [L1196M]; format: biochemical
# ALK [L1196M], sequence (Q9UM73 19-1620 L1196M): as the sequence (Q9UM73 19-1620) above, with L1178M counted along it
# Method: as §13, §14
SMILES,microsomal CLint at 1 μM [3],half-life at 1 μM [3],microsomal CLint at 1 μM [4],half-life at 1 μM [4],IC50 (ALK [WT]),IC50 (ALK [L1196M]),GI50 (ALK[L1196M] (Ba/F3) [1]),Selectivity parental/ALK[L1196M] (ALK[L1196M] (Ba/F3) [2]),IC50 (BaF3 parental),GI50 (BaF3 [EML4-ALK] [5]),Selectivity parental/ALK (BaF3 [EML4-ALK] [6])
"COc1cc(C(C)(C)CN)ccc1Nc1ncc(Cl)c(Nc2ccccc2P(C)(C)=O)n1 [Example 10, (2-((2-((4-(1-amino-2-methylpropan-2-yl)-2-methoxyphenyl)amino)-5-chloropyrimidin-4-yl)amino)phenyl)dimethylphosphine oxide]",25.2 µL/min/mg,55 min,15.1 µL/min/mg,92 min,2 to 5 nM,2 to 5 nM,100 to 200 nM,<50,≥ 1000 nM,25 to 50 nM,100 to 200
"CNCC(C)(C)c1ccc(Nc2ncc(Cl)c(Nc3ccccc3P(C)(C)=O)n2)c(OC)c1 [Example 11, (2-((5-chloro-2-((2-methoxy-4-(2-methyl-1-(methylamino)propan-2-yl)phenyl)amino)pyrimidin-4-yl)amino)phenyl)dimethylphosphine oxide]",23.8 µL/min/mg,58.2 min,7.2 µL/min/mg,194 min,2 to 5 nM,5 to 10 nM,50 to 100 nM,50 to 100,≥ 1000 nM,25 to 50 nM,100 to 200
"COc1cc(C(C)(C)CN(C)C)ccc1Nc1ncc(Cl)c(Nc2ccccc2P(C)(C)=O)n1 [Example 12, (2-((5-chloro-2-((4-(1-(dimethylamino)-2-methylpropan-2-yl)-2-methoxyphenyl)amino)pyrimidin-4-yl)amino)phenyl)dimethylphosphine oxide]",73.5 µL/min/mg,18.9 min,86.8 µL/min/mg,16 min,2 to 5 nM,5 to 10 nM,50 to 100 nM,<50,≥ 1000 nM,25 to 50 nM,100 to 200

# More lines, main results first:
microsomal CLint at 1 μM [3],half-life at 1 μM [3],microsomal CLint at 1 μM [4],half-life at 1 μM [4],IC50 (ALK [WT]),IC50 (ALK [L1196M]),SMILES,GI50 (ALK[L1196M] (Ba/F3) [1]),Selectivity parental/ALK[L1196M] (ALK[L1196M] (Ba/F3) [2]),IC50 (BaF3 parental),GI50 (BaF3 [EML4-ALK] [5]),Selectivity parental/ALK (BaF3 [EML4-ALK] [6])
24.6 µL/min/mg,56.3 min,28.8 µL/min/mg,48.2 min,2 to 5 nM,2 to 5 nM,"COc1cc(C(C)N(C)C)ccc1Nc1ncc(Cl)c(Nc2ccccc2P(C)(C)=O)n1 (centres unmarked) [Example 8, (2-((5-chloro-2-((4-(1-(dimethylamino)ethyl)-2-methoxyphenyl)amino)pyrimidin-4-yl)amino)phenyl)dimethylphosphine oxide]",100 to 200 nM,<50,≥ 1000 nM,25 to 50 nM,100 to 200
11.3 µL/min/mg,123 min,9.9 µL/min/mg,140 min,2 to 5 nM,2 to 5 nM,"CNC(C)c1ccc(Nc2ncc(Cl)c(Nc3ccccc3P(C)(C)=O)n2)c(OC)c1 (centres unmarked) [Example 9, (2-((5-chloro-2-((4-(1-(methylamino)ethyl)-2-methoxyphenyl)amino)pyrimidin-4-yl)amino)phenyl)dimethylphosphine oxide]",200 to 1000 nM,<50,≥ 1000 nM,50 to 100 nM,50 to 100
11.7 µL/min/mg,119 min,9.1 µL/min/mg,152 min,≤ 2 nM,≤ 2 nM,"COc1cc(C(C)(C)N)ccc1Nc1ncc(Cl)c(Nc2ccccc2P(C)(C)=O)n1 [Example 13, (2-((2-((4-(2-aminopropan-2-yl)-2-methoxyphenyl)amino)-5-chloropyrimidin-4-yl)amino)phenyl)dimethylphosphine oxide]",100 to 200 nM,<50,≥ 1000 nM,25 to 50 nM,<50
29.9 µL/min/mg,46.4 min,33.4 µL/min/mg,41.5 min,≤ 2 nM,2 to 5 nM,"COc1cc(C(C)(C)N(C)C)ccc1Nc1ncc(Cl)c(Nc2ccccc2P(C)(C)=O)n1 [Example 14, (2-((5-chloro-2-((4-(2-(dimethylamino)propan-2-yl)-2-methoxyphenyl)amino)pyrimidin-4-yl)amino)phenyl)dimethylphosphine oxide]",50 to 100 nM,<50,≥ 1000 nM,< 25 nM,100 to 200
